Measurements: US12312625B2, “Engineering strain producing cordycepin and its derivative 3′-deoxyinosine, its preparation method and application” (DALIAN UNIVERSITY, priority 2022, dated 2025)

Test system: Pichia pastoris GS115 strain
Assay: Cordycepin tolerance test (growth curves of yeast in YPD medium with cordycepin)
Type: cell-based
Conditions: 30° C., biomass measured every 2h, FIG. 5
Description: In order to detect the tolerance of yeast strains to cordycepin, the inventor thus provides a method of detecting the tolerance of yeast strains to cordycepin. The Pichia pastoris GS115 strain is activated and inoculated into a 96-deep porous plate containing YPD medium, with the inoculation concentration at about OD600=0.4, supplemented with the cordycepin solutions under different concentrations (0.1, 1.0, 2.0, 5.0 g·L^−1). The broth without cordycepin is used as the control, and the porous plate is placed into BioScreene, cultured by shaking at constant temperature of 30° C., and the biomass of the strain is measured every 2h. Triplicates are set in each group, and an average value of the triplicate is calculated to draw a growth curve of yeast strains under the effect of different concentrations of cordycepin. […] As mentioned above, the cordycepin yield has exceeded 2.0 g/L, so the stress tolerance of the strain needs to be considered.

Nc1ncnc2c1ncn2[C@@H]1O[C@H](CO)C[C@H]1O [cordycepin]
growth of yeast strains (YPD medium containing 2-5 g/L cordycepin): severely inhibited
growth of yeast strains (YPD medium, 1 g/L cordycepin): slight impact
growth of yeast strains (YPD medium, cordycepin below 0.1 g/L): almost has no effect
